Measured values reported in patent US8304418B2, “Pyrazolopyrimidinone kinase inhibitor” (Agennix AG, priority 2007, dated 2012).
“And” between values parts separate entries of the source, which are not always exact repeats. Equal values may be shown once. Read-outs that look alike come from different tables or passages of the source.

Key:
H460 NSCLC = conditions: H460; for Max % TGI (d): day 13
Experimental: Xenograft Tumor-Models: 100 athymic nu/nu female mice (6-8 weeks old) from CRL were allowed to acclimate for 4 days. […] The 3rd passage of cells with approximate 90% confluence was used for these experiments. Briefly, on Day 0, mice were inoculated with 0.1 ml (total 5×10^6 cells) of the respective cell-type as a cell suspension (50×10^6 cells/ml) by subcutaneous injection into the fat pad area near the mammary gland under light anesthesia. When the average tumor weight in all mice reached over 100 mg (day 10), 80 animals with an average tumor size of 130 mg were selected and were randomly divided into 8 groups.
A 20 G gavage needle was used for the oral treatment.
Tumor growth and body weight were monitored and recorded three times a week. Tumors were measured by determining the length and width of the tumor with a digital caliper. Tumor weight was estimated using the following formula: Tumor Weight (mg)=(w^2×1)×0.52 where w=width and l=length in mm of the tumor.
Experimental treatment may cause partial regression (PR) or complete regression (CR) of tumors. PR is defined when the tumor size is 50% or less than the starting (day 1) size but greater than 0.0 mg for three consecutive measurements during the course of the study. CR occurs when there is no measurable tumor mass for three consecutive measurements. Cures are defined when CR are maintained until the completion of the experiment.
Mice were sacrificed when their tumors reached the 1000 mm^3 endpoint volume. Treatment efficacy was determined as Log Cell Kill (LCK).
Toxic deaths are defined as deaths caused by compound treatment and not by advanced disease state. […] Non-tumor related deaths after this point are recorded, but not considered toxic deaths.
Briefly, the empirical distributions of T and Td were derived from B=1000 realisations of random selection of n individual animals with replacement from the set i=1, . . . , n of the appropriate group of mice containing n evaluable animals, estimating the mean tumor size for such selection of animals for each time-point, and linear regression analysis from a semi-log plot of such averages against time. Dead mice and mice with no measurable tumor size were treated as missing data and were ignored when calculating the average.

A2780 = experiment: Cell proliferation, A2780; assay type: cell-based; conditions: Homo sapiens
Experimental: The assays used for determining the properties of the kinase inhibitors were performed in accordance with standard procedures well known to those skilled in the art. For example, assays for determining inhibitory activity on CDKs or in cellular assays are described in WO 00/218962, WO 2005/026129, and WO 2005/063765. Solubility assays at pH 7.4 were essentially performed as described by Avdeef, A. in Pharmacokinetic Optimization in Drug Research; Testa, B.; van de Waterbeemd, H.; Folkers, G.; Guy, R. Eds.; Wiley-VHC: Zurich, 2001; pp 305-326. PAMPA permeability assays at pH 7.4 were essentially performed as described in Kansy et al., J. Med. Chem. 41: 1007-10, 1998.
When compared to IC50s of cellular proliferation by compound I, (as determined by the methods described earlier), the corresponding IC50 for cellular inhibition of CDK9-dependent RNAPII phosphorylation is approximately similar.

[1] = tested on: human A2780 ovarian tumor cells
Experimental: Compound P (as hydrochloric acid salt) was formulated in 30% PEG300/70% water, and Compound I (as hydrochloric acid salt) was formulated in 20% PEG300/80% D5W (5% dextrose water) and administered by oral gavage twice every day for 10 days (bid×10), while the Cytoxan control which was administered i.p. in saline every two days over a period of 10 days (q2 d×5): […]

[2] = tested on: CDK9-specific phosphorylation of RNA polymerase II (RNAPII) on serine 2; experiment: In-cell RNAPII phosphorylation (immunoblot); assay type: cell-based, human; conditions: Homo sapiens, 3 h
Experimental: The following cancer cell lines were investigated in the course of these studies: A2780 (ovarian), HCT116 (colon), RPMI8226 (myeloma), SKMel28 (melanoma), Colo205 (colorectal), MDA-MB-435 (melanoma), MDA-MB-453 (breast, carcinoma), MDA-MB-468 (breast, adenocarcinoma), A549 (lung), Raji (lymphoma, Burkitt). Cell lines were obtained from public repositories.
CDK9-specific phosphorylation of RNA polymerase II (RNAPII) on Serine 2 (Ser2). Asynchronous cells were treated with an appropriate concentration of test compound or DMSO as a control. After 3 h incubation (37° C./5% CO2) cells were lysed with CLB-1 lysis buffer (Zeptosense, Switzerland), the lysate was cleared by centrifugation (10 min, 13000 rpm, RT) and subjected to SDS-PAGE. Total protein was blotted on PVDF membranes and analyzed using antibodies against S2-phosphorylated RNAPII (H5; Covance) or total RNAPII (N-20; Santa Cruz) as an expression control. Visualization was conducted using secondary Alexa680- or IR800-coupled antibodies (Molecular Probes) against mouse or rabbit Fc tails on the Odyssey-system (Licor). Specific bands were quantified and IC50 values of inhibition of RNAPII phosphorylation were estimated.

For `CC(C)c1nn(-c2c(Cl)cncc2Cl)c2nc(Cc3ccc(CN4CCCC4)c(O)c3)[nH]c(=O)c12` [Compound I, 1-(3,5-dichloropyridin-4-yl)-6-(3-hydroxy-4-pyrrolidinomethyl-phenyl)methyl-3-isopropyl-pyrazolo[3,4-d]pyrimidin-4-one], the “Toxic Mortality” value (H460 NSCLC; 32 [30] mg/kg po qdx10, N=10) was 0, the “Max % TGI (d)” value (H460 NSCLC; 32 [30] mg/kg po qdx10) was 30.7 (13) % and the “LCK ± CI (95%) (Td: 2.6 d)” value (H460 NSCLC; 63 [59] mg/kg po qdx10) was 0.48 ± 0.15 and 0.48. The “Toxic Mortality” value (H460 NSCLC; 63 [59] mg/kg po qdx10, N=10) was 0, the “Max % TGI (d)” value (H460 NSCLC; 63 [59] mg/kg po qdx10) was 43.1 (13) % and the “LCK ± CI (95%) (Td: 2.6 d)” value (H460 NSCLC; 95 [89] mg/kg po qdx10) was 0.97 ± 0.25 and 0.97. The “Toxic Mortality” value (H460 NSCLC; 95 [89] mg/kg po qdx10) was 2/10, the “Max % TGI (d)” value (H460 NSCLC; 95 [89] mg/kg po qdx10) was 57.1 (13) % and the IC50 (A2780) was about 0.1 µM. The “Toxic Mortality” value ([1]; 15 [14] mg/kg po bidx10, N=10) was 0, the “Max % TGI (d)” value ([1]; 15 [14] mg/kg po bidx10, day 10) was 47 (10) % and the “Max % BW Loss (d)” value ([1]; 15 [14 free base] mg/kg po bidx10, HCl salt, day 6) was 0 (6) %. The “LCK ± CI (95%) (Td: 2.1 d)” value ([1]; 32 [30] mg/kg po bidx10) was 1.72 ± 0.89 and 1.72, the “Toxic Mortality” value ([1]; 32 [30] mg/kg po bidx10, N=10) was 0 and the “Max % TGI (d)” value ([1]; 32 [30] mg/kg po bidx10, day 13) was 81 (13) %. For the same molecule, the “Max % BW Loss (d)” value ([1]; 32 [30] mg/kg po bidx10, day 15) was 4.8 (15) %, the “LCK ± CI (95%) (Td: 2.1 d)” value ([1]; 48 [45] mg/kg po bidx10) was 3.38 ± 0.81 and 3.38 and the Cure ([1]; 48 [45] mg/kg po bidx10, N=10) was 3. For the same molecule, the “Toxic Mortality” value ([1]; 48 [45] mg/kg po bidx10, N=10) was 0, the “Max % TGI (d)” value ([1]; 48 [45] mg/kg po bidx10, day 13) was 97 (13) % and the “Max % BW Loss (d)” value ([1]; 48 [45] mg/kg po bidx10, day 15) was 15.9 (15) %. The CR ([1]; 48 [45] mg/kg po bidx10, mice with complete regression, N=10) was 1, the PR ([1]; 48 [45] mg/kg po bidx10, mice with partial regression, N=10) was 5 and the IC50 ([2]; COLO 205, Colo205 cells) was about 0.1 µM. The IC50 ([2]; HCT-116, HCT116 cells) was about 0.1 µM, the IC50 ([2]; RPMI-8226, RPMI8226 cells) was about 0.1 µM and the IC50 ([2]; A2780 cells) was about 0.1 µM. For the same molecule, the IC50 ([2]; MDA-MB-468 cells) was about 0.1 µM and the IC50 ([2]; Sk-mel-28 cells) was about 0.1 µM.
